Results taken from patent publication US20200131227A1, “POLYPEPTIDE WITH TUMOUR BINDING ACTIVITY” (RUPRECHT-KARLS-UNIVERSITÄT HEIDELBERG, priority 2017, published 2020).
Blank lines part the entries; values can stand above or below the molecule they belong to. Where a SMILES comes first, the peptide text is derived from it. Bridges are numbered along the chain shown (N, C = ends). Roman numbers before positions name the chains, in order. Where no end group is shown, it is not given here. The star is where a group is joined. DOTA = O=C(O)CN1CCN(CC(=O)O)CCN(CC(=O)*)CCN(CC(=O)O)CC1

Tests used:
Capan-2 cells = test: In vitro binding, internalization and efflux on Capan-2 cells; format: cell-based, human
Experimental: For in vitro binding Studies, 4*10^5-6*10^5 cells were seeded in 6 well plates and cultivated for 24 to 48 hours. At the start of the experiment the medium was replaced with 1 ml serum free medium with a definite amount of radioactive labeled peptide per well. For normal binding assays the cells were incubated for 60 min at 37° C. and afterwards washed 3 times with PBS (pH 7.4). Cells were lysed with 2 times 0.5 ml of a 0.3 M NaOH +0.2% SDS lysis-buffer. Competition assays were performed with ^125I-labeled and unlabelled (10^−6 to 10^−11M) peptide and incubated at the same time for 60 min.
Cells were incubated for 10 to 240 min with ^177Lu-labelled peptide in internalization assays. After the washing steps, the cells were incubated with 1 ml glycine-HCl (1 M, pH 2.2) buffer for 10 min to remove surface bound peptide. Prior to the lyses the cells were washed again. Values are given as percentage of applied dose per 10^6 cells.
The efflux was tested with ^177Lu-labeled peptides. After 60 min incubation the radioactive medium was removed and 1 ml fresh serum-free medium was added. After additional incubation of 60, 120 or 240 min, cell bound activity was measured.

[1] = system: HNSCC tumor sections (HNO97 xenograft, HNO444, HNO399, HNO210); test: Histochemical peptide staining of HNSCC tumor cryosections; design: species or system human; conditions: biotinylated PEG(12)-peptide, 10^-5 M
Experimental: Staining with the biotinylated PEG(12)-SFITGv6 peptide was performed on acetone-fixed cryosections (5 μm) of tumor tissues after blocking of unspecific binding using the Avidin/Biotin Blocking Kit (SP-2001, Vector Laboratories). A stock solution of the lyophilized peptide was prepared by dilution in 5% aqueous DMSO. Slices were incubated overnight at 4° C. with 10^-5 M peptide concentration in antibody diluent (DAKO). Detection of bound peptide was carried out with the Vectastain Elite ABC Kit (PK-6100, Vector Laboratories) according to manufacturer's protocol. Peptide specificity was ensured by a scrambled (GRD) PEG(12)-SFITGv6 derivate, the somatostatin receptor ligand DOTATOC and negative controls (without peptide or primary antibody) Staining results were assessed by bright field microscopy (BX50) with the SC30 camera and the cell Sense software (all Olympus).
Immunohistochemical stainings were performed by use of the biotinylated PEG(12)-labled peptides (SFITGv6, SFLAP3) on 5 μm acetone-fixed tumor tissue cryosections. To prevent background staining we initially applied the Avidin/Biotin Blocking Kit (SP-2001, Vector Laboratories). The lyophilized peptides were diluted in 5% aqueous DMSO preparing a 1 mM Stock solution. The HNSCC cryosections were incubated with 10^−5 M peptide concentration in antibody diluent (DAKO) at 4° C. overnight. To detect bound peptide the Vectastain Elite ABC Kit (PK-6100, Vector Laboratories) was applied according to manufacturer's protocol. Peptide binding specificity was ensured by use of a peptide derivate (scrambled control) and negative controls (without peptide). Due to instability of the peptide binding staining results were assessed on the same day by bright field microscopy (BX50) with the SC30 camera and the cell Sense software (all Olympus).

carcinoma cell lines = test: In vitro binding of radiolabeled peptides to several carcinoma cell lines; format: cell-based, human; conditions: HNO97, HNO399, HNO223, HNO210, HNO199; 60 min
Experimental: (§1) For binding studies, 2.5×10^5 to 4×10^5 cells were seeded in 6-well plates and cultivated for 48 hours. Cells were incubated for 60 min with 1 mL serum-free medium containing the ^125I-labeled peptide (see above). For competition experiments, cells were simultaneously exposed to unlabeled (10^-4 M to 10^-10 M) and ^125I-labeled peptides. After three washing steps with PBS (pH 7.4) the cells were lysed with 0.5 mL of 0.3 M NaOH. Experiments concerning the internalization, kinetics and efflux were additionally performed with ^177Lu-DOTA-SFITGv6. To evaluate kinetics and efflux HNO97 cells were incubated for different time intervals (10 min to 480 min) and 60 min, respectively, with ^177Lu-DOTA-SFITGv6 and lysed as described. To continue with the efflux experiment radioactive medium was replaced by non-radioactive medium and cells were incubated again for 60 to 240 min before measuring radioactivity of the cell lysates and the medium. For internalization experiments the cells were exposed to ^177Lu-DOTA-SFITGv6 for different time intervals (10 to 240 min) at 37° C. and 4° C. After three washing steps with PBS the cells were incubated with 1 mL of glycine-HCl 50 mmol/L in PBS (pH 2.8) for 10 min at RT to remove the surface bound activity. Then, cells were washed with 3 mL of ice-cold PBS and lysed as described. Radioactivity was determined in a gamma counter and calculated as percentage of the applied dose per 1×10^6 cells. Experiments were performed three times, and three repetitions per independent experiment were acquired.
(§2) For the assessment of the peptide binding capacity in vitro, 2.5-4×10^5 cells were seeded into 6-well plates and cultivated for 48 h. ^125I-labeled peptide resuspended in 1 mL serum-free medium was added and incubated for either 10 min or 60 min with or without different concentrations of unlabeled peptide (10^−4-10^−11 M). Afterwards, cell monolayers were washed three times with 1 mL phosphate-buffered saline (pH 7.4) to remove unbound peptide and the cells were harvested with 1.4 mL lysis buffer (0.3 M NaOH). To evaluate kinetic properties the cells were exposed to ^177Lu-DOTA-labeled peptides for 10, 30, 60, 120, and 240 min, respectively, and lysed as described. For the efflux experiments the cells were incubated with ^177Lu-DOTA-labeled peptides for 60 min. Thereafter, radioactive medium was replaced by non-radioactive medium and cell monolayers were incubated for additional 60, 120, and 240 min and afterwards lysed as described earlier. The internalization was assessed after exposure of the cells to ^177Lu-DOTA-labeled peptides for 10, 30, 60, 120, and 240 min at 37° C. Unspecifically bound peptide was removed from the surface by incubation with 1 M glycine-HCl solution (pH 2.2) for 10 min. The monolayer cell was rinsed with PBS and cells were lysed as described before. Radioactivity was determined in a y-counter and calculated as percentage of the applied dose per 1×10^6 cells. Experiments were performed three times, and three repetitions per independent experiment were acquired.

HNO97 cells [2] = test: In vitro binding, kinetics, internalization and efflux on HNO97 cells; format: cell-based, human; conditions: continuously increasing, within 480 min
Experimental: as §1, §2

HNO97 cells [3] = format: binding, human; conditions: 48 h
Experimental: as §1

[4] = biological target: T1, integrin αvβ6 (ITGαvβ6) as expressed on human carcinoma cell lines and tumor tissue sections (human, UniProt P06756 31-1048; P18564 22-788); test: unlabelled peptide competing with the 125I-labelled peptide on Capan-2 cells, 60 min
T1 construct: whole, on cells; also called ITGAVB6; ITGαvβ6-expressing HNO97 cells
T1 sequence (P06756 31-1048, chain 1 of 2): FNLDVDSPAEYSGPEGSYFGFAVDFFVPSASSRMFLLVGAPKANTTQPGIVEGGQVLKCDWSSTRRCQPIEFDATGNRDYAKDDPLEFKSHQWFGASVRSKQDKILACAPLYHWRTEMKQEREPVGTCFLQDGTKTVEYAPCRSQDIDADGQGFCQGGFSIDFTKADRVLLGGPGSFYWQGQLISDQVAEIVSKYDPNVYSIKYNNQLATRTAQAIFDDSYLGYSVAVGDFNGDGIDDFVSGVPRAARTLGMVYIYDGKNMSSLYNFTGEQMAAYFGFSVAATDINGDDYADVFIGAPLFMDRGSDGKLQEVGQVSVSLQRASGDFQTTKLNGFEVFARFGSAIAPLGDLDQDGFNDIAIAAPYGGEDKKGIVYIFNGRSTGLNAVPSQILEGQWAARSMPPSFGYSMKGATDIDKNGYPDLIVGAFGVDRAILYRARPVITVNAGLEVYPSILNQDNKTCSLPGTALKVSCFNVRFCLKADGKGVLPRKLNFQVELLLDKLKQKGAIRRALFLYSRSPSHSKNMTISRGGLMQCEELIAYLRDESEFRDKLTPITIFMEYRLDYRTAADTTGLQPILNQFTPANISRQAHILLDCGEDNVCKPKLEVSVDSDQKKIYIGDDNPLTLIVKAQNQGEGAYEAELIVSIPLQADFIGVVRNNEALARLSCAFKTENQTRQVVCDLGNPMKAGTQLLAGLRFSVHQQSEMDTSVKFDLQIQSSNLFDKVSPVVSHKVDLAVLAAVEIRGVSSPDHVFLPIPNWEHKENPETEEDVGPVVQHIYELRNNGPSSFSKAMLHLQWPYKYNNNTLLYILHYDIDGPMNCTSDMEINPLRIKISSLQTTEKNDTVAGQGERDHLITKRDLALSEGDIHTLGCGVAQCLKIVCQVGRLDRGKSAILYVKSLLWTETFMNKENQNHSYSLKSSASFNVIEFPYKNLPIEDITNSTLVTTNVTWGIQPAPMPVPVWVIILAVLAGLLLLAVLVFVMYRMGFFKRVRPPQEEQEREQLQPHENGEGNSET
T1 sequence (P18564 22-788, chain 2 of 2): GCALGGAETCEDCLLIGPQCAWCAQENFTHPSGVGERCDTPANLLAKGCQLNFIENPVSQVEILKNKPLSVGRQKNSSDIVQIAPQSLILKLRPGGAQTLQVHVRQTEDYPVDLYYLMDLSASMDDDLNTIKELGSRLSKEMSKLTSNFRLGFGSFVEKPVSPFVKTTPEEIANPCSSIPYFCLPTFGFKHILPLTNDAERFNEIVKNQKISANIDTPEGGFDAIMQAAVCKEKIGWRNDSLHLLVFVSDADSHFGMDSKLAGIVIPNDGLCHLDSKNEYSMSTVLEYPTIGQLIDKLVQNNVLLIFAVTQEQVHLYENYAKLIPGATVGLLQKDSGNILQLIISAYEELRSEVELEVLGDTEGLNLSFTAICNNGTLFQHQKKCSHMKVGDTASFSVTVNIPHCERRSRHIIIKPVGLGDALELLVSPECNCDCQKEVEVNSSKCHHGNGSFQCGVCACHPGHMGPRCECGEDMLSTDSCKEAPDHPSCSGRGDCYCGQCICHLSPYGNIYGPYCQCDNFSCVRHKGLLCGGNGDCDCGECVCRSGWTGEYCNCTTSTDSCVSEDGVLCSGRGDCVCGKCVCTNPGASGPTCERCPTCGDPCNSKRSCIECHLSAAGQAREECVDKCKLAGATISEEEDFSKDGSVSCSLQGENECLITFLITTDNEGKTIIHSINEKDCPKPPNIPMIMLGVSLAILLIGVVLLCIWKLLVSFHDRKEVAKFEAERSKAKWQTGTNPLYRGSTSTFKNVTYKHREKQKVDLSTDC

Molecule: ^177Lu-DOTA-SFLAP3K: ^177Lu-DOTA-labeled SFLAP3K ({DOTA}-GRCTGRGDLGRLKCYPD; disulfide 3-14; also: DOTA loaded with 177Lu)
cellular uptake of ^177Lu-DOTA-labeled peptide compared with ^177Lu-DOTA-SFLAP3 (Capan-2 cells; 10 and 60 min): did not result in an increased cellular uptake | efflux (released into the culture medium) (Capan-2 cells; during 4 hours following 60 min exposure): 50%

Molecule: biotinylated PEG(12)-SFITGv6: biotinylated PEG(12)-SFITGv6 peptide for histochemical staining (GRCTFRGDLMQLCYPD; disulfide 3-13; also: biotinylated PEG(12) label, site not given here)
histochemical peptide staining result ([1]; listed as biotin-labeled SFITGv6): strong and homogenous tumor cell-specific binding | histochemical peptide staining result ([1]; listed as biotinylated SFITGv6): specific, strong and homogeneous binding

Molecule: SFLAP1: SFTI derivate with grafted LAP1 octamer RRGDLAFI (GRCTRRGDLAFICYPD; disulfide 3-13 (inferred); also: 125I on the tyrosine in labelled form)
binding capacity of ^125I-labeled peptide across HNSCC cell lines (carcinoma cell lines): 4.1-12.1%

Molecule: ^177Lu-DOTA-SFPF10: ^177Lu-DOTA-labeled SFPF-10 ({DOTA}-GRCTFRGDKMQLCYPD; disulfide 3-13 (inferred); also: DOTA loaded with 177Lu)
binding of ^177Lu-DOTA-labeled peptide (kinetics) (HNO97 cells [2]): up to 23%

Molecule: C[C@@H](O)[C@@H]1NC(=O)[C@H](CCCCN)NC(=O)[C@@H](Cc2c[nH]c3ccccc23)NC(=O)[C@H](Cc2ccc(O)cc2)NC(=O)[C@@H](NC(=O)[C@@H](Cc2ccccc2)NC(=O)CN2CCN(CC(=O)O)CCN(CC(=O)O)CCN(CC(=O)O)CC2)CSSC[C@@H](C(=O)N[C@H](CO)[C@@H](C)O)NC1=O [DOTATOC, DOTA(0)-Phe(1)-Tyr(3))octreotid, reference compound]
histochemical peptide staining result [1]: could not observe any specific binding

IC50 (HNO97 cells [3]): 18 nM
Molecule: CSCC[C@@H]1NC(=O)[C@H](CCCCN)NC(=O)[C@H](CC(=O)O)NC(=O)CNC(=O)[C@H](CCCNC(=N)N)NC(=O)[C@H](Cc2ccccc2)NC(=O)[C@H]([C@@H](C)O)NC(=O)[C@@H](NC(=O)[C@H](CCCNC(=N)N)NC(=O)CN)CSSC[C@@H](C(=O)N[C@@H](Cc2ccc(O)cc2)C(=O)N2CCC[C@H]2C(=O)N[C@@H](CC(=O)O)C(=O)O)NC(=O)[C@H](CC(C)C)NC(=O)[C@H](CCC(N)=O)NC1=O [SFPF-10] (H-GRCTFRGDKMQLCYPD-OH; disulfide 3-13; N-terminus and C-terminus assumed)

Molecule: H2N-G-R-C1-T-G-R-G-D-L-G-R-L-K-C2-Y-P-D-COOH (H-GRCTGRGDLGRLKCYPD-OH; disulfide 3-14; SMILES CC(C)C[C@@H]1NC(=O)[C@H](CC(=O)O)NC(=O)CNC(=O)[C@H](CCCNC(=N)N)NC(=O)CNC(=O)[C@H]([C@@H](C)O)NC(=O)[C@@H](NC(=O)[C@H](CCCNC(=N)N)NC(=O)CN)CSSC[C@@H](C(=O)N[C@@H](Cc2ccc(O)cc2)C(=O)N2CCC[C@H]2C(=O)N[C@@H](CC(=O)O)C(=O)O)NC(=O)[C@H](CCCCN)NC(=O)[C@H](CC(C)C)NC(=O)[C@H](CCCNC(=N)N)NC(=O)CNC1=O) [SFLAP3K]
cellular uptake of ^125I-labeled variant compared with SFLAP3 (Capan-2 cells; different pancreatic carcinoma cell lines (FIG. 25D)): increased cellular uptake

IC50 (HNO97 cells [3]): 45.1 nM
Molecule: CC(C)C[C@H](NC(=O)[C@H](CC(=O)O)NC(=O)CNC(=O)[C@H](CCCNC(=N)N)NC(=O)[C@@H]1CCCN1C(=O)[C@@H](N)CO)C(=O)N[C@@H](C)C(=O)N[C@H](C(=O)N[C@@H](CC(C)C)C(=O)NCC(=O)N[C@@H](Cc1c[nH]cn1)C(=O)N[C@@H](CCCCN)C(=O)N[C@@H](Cc1ccc(O)cc1)C(N)=O)C(C)C [HBP-1, reference compound] (H-SPRGDLAVLGHKY-NH2; N-terminus and C-terminus assumed)

IC50 [4]: 2.1 nM
B1: ^177Lu-DOTA-SFLAP3K (peptide)
peptide: {DOTA}-GRCTGRGDLGRLKCYPD
modifications: disulfide 3-14; also: DOTA loaded with 177Lu (or peptide 125I-labelled in competition assay)
notes: DOTA conjugate of SFLAP3K

IC50 [4]: 6.2 nM
B2: ^177Lu-DOTA-SFLAP3 (peptide)
peptide: {DOTA}-GRCTGRGDLGRLCYPD
modifications: disulfide 3-13; also: DOTA loaded with 177Lu (or peptide 125I-labelled in competition assay)
notes: DOTA conjugate of SFLAP3

IC50 [4]: 0.76 nM
B3: ^177Lu-DOTA-SFLAP3-trimer (Formula (XXVII)) (peptide)
chain: {DOTA}-GSGSKGSGSKGSGSK
peptide: GRCTGRGDLGRLCYPD
modifications: disulfide II:3-II:13; also: 177Lu chelated by DOTA, three SFLAP3 units attached by oxime ligation, aminooxy-modified, sites not given here, only one SFLAP3 unit listed as chain
notes: Branched trimer; the exact connectivity stands only in the drawing of formula (XXVII), which is not readable here; also called trimerized peptide
